Each block holds one compound with its values, some of them ahead of it.
Key:
SK-MEL-28 [1] = assay: Antiproliferative activity against human SK-MEL-28 cells assessed as inhibition of cell growth measured after 24 hrs by MTT assay; format: functional, cell-based; conditions: SK-MEL-28, 24 h
B16-F10 = assay: Antiproliferative activity against B16-F10 cells assessed as inhibition of cell growth measured after 24 hrs by MTT assay; format: functional, cell-based; conditions: Mus musculus, B16-F10, 24 h
NCI-H1299 = assay: Antiproliferative activity against human NCI-H1299 cells assessed as inhibition of cell growth measured after 24 hrs by MTT assay; format: functional, cell-based; conditions: NCI-H1299, 24 h
Jurkat = assay: Induction of apoptosis in human Jurkat cells assessed as increase in apoptotic cells by propidium iodide staining based flow cytometry; format: functional, cell-based
MCF7 [2] = assay: Antiproliferative activity against human MCF7 cells assessed as inhibition of cell growth incubated for 24 hrs by MTT assay; format: functional, cell-based; conditions: MCF7, 24 h
CAL-27 [3] = assay: Antiproliferative activity against human CAL-27 cells assessed as reduction of cell growth at 100 nM incubated for 24 hrs by MTS assay; format: functional; design: scale not given: the % may be the effect or the level left
SBcl2 = assay: Antiproliferative activity against human SBcl2 cells assessed as inhibition of cell growth incubated for 24 hrs by MTT assay; format: functional, cell-based; conditions: SBcl2, 24 h
SK-MEL-28 [4] = assay: Antiproliferative activity against human SK-MEL-28 cells assessed as inhibition of cell growth incubated for 24 hrs by MTT assay; format: functional, cell-based; conditions: SK-MEL-28, 24 h
[5] = Antiproliferative activity against human SK-MEL-85 cells assessed as inhibition of cell growth incubated for 24 hrs by MTT assay; format: functional, cell-based; conditions: SK-MEL-85, 24 h
MCF7 [6] = assay: Antiproliferative activity against human MCF7 cells assessed as inhibition of cell growth by MTT assay; format: functional, cell-based
MDA-MB-231 [7] = assay: Antiproliferative activity against human MDA-MB-231 cells assessed as inhibition of cell growth by MTT assay; format: functional, cell-based
BT-474 = assay: Antiproliferative activity against human BT-474 cells assessed as inhibition of cell growth by MTT assay; format: functional, cell-based
SCC-4 = assay: Antiproliferative activity against human SCC-4 cells assessed as inhibition of cell growth incubated for 24 hrs by MTS assay; format: functional, cell-based; conditions: SCC-4, 24 h
CAL-27 [8] = assay: Antitumor activity against human CAL-27 cells xenografted in mouse assessed as fold decrease in tumor size at 12 mg/kg, ip measured for 4 weeks by hematoxylin and eosin staining based analysis relative to control; format: functional
[9] = Cytotoxicity against human OKF6/TERT-2 cells assessed as inhibition of cell growth at >7.5 uM incubated for 24 hrs by MTS assay; format: toxicity, cell-based; conditions: read-out: Activity
CAL-27 [10] = assay: Antiproliferative activity against human CAL-27 cells assessed as inhibition of cell growth incubated for 24 hrs by MTS assay; format: functional, cell-based; conditions: CAL-27, 24 h
HSC-3 = assay: Antiproliferative activity against human HSC-3 cells assessed as inhibition of cell growth incubated for 24 hrs by MTS assay; format: functional, cell-based; conditions: HSC-3, 24 h
CAL-27 [11] = assay: Antitumor activity against human CAL-27 cells xenografted in mouse assessed as mean tumor volume at 12 mg/kg, ip measured for 4 weeks by hematoxylin and eosin staining based analysis (reference value: 541 […]); format: functional
SCC-9 = assay: Antiproliferative activity against human SCC-9 cells assessed as inhibition of cell growth incubated for 24 hrs by MTS assay; format: functional, cell-based; conditions: SCC-9, 24 h
T-24 = assay: Antiproliferative activity against human T24 cells assessed as inhibition of cell growth measured after 24 hrs by MTT assay; format: functional, cell-based; conditions: T-24, 24 h
5637 = assay: Antiproliferative activity against human 5637 cells assessed as inhibition of cell growth measured after 24 hrs by MTT assay; format: functional, cell-based; conditions: Homo sapiens, 5637, 24 h
HeLa = assay: Antiproliferative activity against human HeLa cells assessed as inhibition of cell growth incubated for 24 hrs by MTS assay; format: functional, cell-based
CAL-27 [12] = assay: Antiproliferative activity against human CAL-27 cells assessed as reduction of cell growth at 500 uM incubated for 24 hrs in presence of cisplatin by MTS assay; format: functional; design: scale not given: the % may be the effect or the level left
CAL-27 [13] = assay: Antiproliferative activity against human CAL-27 cells assessed as reduction of cell growth at 500 uM incubated for 24 hrs by MTS assay; format: functional; design: scale not given: the % may be the effect or the level left
MDA-MB-231 [14] = assay: Antiproliferative activity against human MDA-MB-231 cells assessed as inhibition of cell growth incubated for 24 hrs by MTS assay; format: functional, cell-based; conditions: MDA-MB-231, 24 h
PC-3 = assay: Antiproliferative activity against human PC-3 cells assessed as inhibition of cell growth incubated for 24 hrs by MTS assay; format: functional, cell-based; conditions: PC-3, 24 h
NCI-H460 = assay: Antiproliferative activity against human NCI-H460 cells assessed as inhibition of cell growth incubated for 24 hrs by MTS assay; format: functional, cell-based; conditions: NCI-H460, 24 h
CAL-27 [15] = assay: Antiproliferative activity against human CAL-27 cells assessed as reduction of cell growth at 500 uM incubated for 24 hrs in presence of gefitinib by MTS assay; format: functional; design: scale not given: the % may be the effect or the level left
DU-145 = assay: Antiproliferative activity against human DU-145 cells assessed as inhibition of cell growth; format: functional, cell-based

Compound: CCCCCCCCCCC(=O)OCc1ccc2c(c1)OCO2
IC50 (SK-MEL-28 [1]): 85 µM
IC50 (B16-F10): 87 µM

Compound: COc1cc(CNC(=O)CCCC/C=C/C(C)C)ccc1O [CAPSAICIN]
IC50 (NCI-H1299): ≥ 200 µM
IC50 (Jurkat): ~128 µM
IC50 (B16-F10): 117 µM
IC50 (MCF7 [2]): ~53 µM

Compound: COc1cc2ncnc(Nc3ccc(F)c(Cl)c3)c2cc1OCCCN1CCOCC1 [GEFITINIB]
Activity (CAL-27 [3]): 50%

Compound: Oc1cc2c(cc1O)CN(C(=S)NCCc1ccc(Cl)cc1)CC2
IC50 (SCC-4): 2.5 µM
fold change (FC) (CAL-27 [8]): 2.6
inhibition at 24 h [9]: 20%
IC50 (CAL-27 [10]): 2.5 µM
IC50 (HSC-3): 2.5 µM
Activity (CAL-27 [11]): 211 mm3
IC50 (SCC-9): 2.5 µM

Compound: C=C(C)[C@]12C[C@@H](C)[C@@]34O[C@](Cc5ccccc5)(O[C@@H]1[C@@H]3C=C(COC(=O)Cc1ccc(O)c(OC)c1)C[C@]1(O)C(=O)C(C)=C[C@@H]41)O2 [RESINIFERATOXIN]
IC50 (T-24): ~21.4 µM
IC50 5637: 19.9 µM

Compound: Oc1cc2c(cc1O)C(c1ccccc1)N(C(=S)NCc1ccccc1)CC2 (stereo not given)
IC50 (SCC-4): 20 µM
fold change (FC) (CAL-27 [8]): 1.6
inhibition at 24 h [9]: 20%
IC50 (CAL-27 [10]): 20 µM
IC50 (HSC-3): 20 µM
Activity (CAL-27 [11]): 134 mm3
IC50 (SCC-9): 20 µM

Second part, led by results:

IC50 (Jurkat): ~70 µM
Compound: COc1cc(COC(=O)CCCCCC(C)C)ccc1O

IC50 (SK-MEL-28 [4]): 19.1 µM
IC50 (MCF7 [2]): 32 µM
Compound: O=S(=O)(NCc1ccc2c(c1)OCO2)c1ccccc1
IC50 (SBcl2): 17.5 µM
IC50 [5]: 15.7 µM

IC50 (MCF7 [6]): 3 µM
IC50 (MDA-MB-231 [7]): 40.8 µM
IC50 (BT-474): 10.6 µM
Compound: CCOC(=O)C1=C(c2ccccc2)NC(C)=C(C(=O)SCCOC)C1CC (stereo not given)

IC50 (HeLa): ~5 µM
IC50 (MDA-MB-231 [14]): 2.5 µM
IC50 (PC-3): 1 µM
IC50 (NCI-H460): 7.5 µM
Compound: Oc1cc2c(cc1O)C(c1ccccc1)N(C(=S)NCCc1ccc(Cl)cc1)CC2 (stereo not given)
IC50 (SCC-4): 1 µM
Activity (CAL-27 [12]): 95%
fold change (FC) (CAL-27 [8]): 4
Activity (CAL-27 [13]): 20%
inhibition at 24 h [9]: 20%
IC50 (CAL-27 [10]): 1 µM
IC50 (HSC-3): 1 µM
Activity (CAL-27 [15]): ~80%
Activity (CAL-27 [11]): 333 mm3
IC50 (SCC-9): 1 µM

IC50 (NCI-H1299): 187 µM
IC50 (B16-F10): 117 µM
Compound: COc1ccc(CC(=O)OCc2ccc3c(c2)OCO3)cc1

IC50 (DU-145): 54 µM
Compound: Oc1cc2c(cc1O)CN(C(=S)NCCc1ccc(Cl)cc1)CCC2 [CAPSAZEPINE]
fold change (FC) (CAL-27 [8]): 2
Activity (CAL-27 [11]): 269 mm3

Reference: ChEMBL document CHEMBL5338734, “Anticancer Activity of Region B Capsaicin Analogs” (J Med Chem, 2023)
